From ChEMBL document CHEMBL3779883, “Design and Synthesis of Nonpeptide Inhibitors of Hepatocyte Growth Factor Activation” (ACS Med Chem Lett, 2016) come the findings set out here.

In brackets after ≈: the same amount, converted by molar mass.

Data set [1] is described as follows: Kinetic solubility of the compound at pH 7.4. The conditions noted are these: buffer, read-out: Kinetic_solubility. The class given is physicochemical.
For the next data set, the target named is Trypsin (Homo sapiens, UniProt P07477+P07478+P35030). Description: Inhibition of human recombinant trypsin using H2N(EEdansyl)GKQLRVVNGG (KDabcyl)-NH2 as substrate by fluorometric analysis. The class given is protein assay.
In a further data set the target is Coagulation factor X (Homo sapiens, UniProt P00742). The data set can be described thus: Inhibition of human recombinant factor 10a using H2N(EEdansyl)GKQLRVVNGG (KDabcyl)-NH2 as substrate by fluorometric analysis.
Chain of Coagulation factor X (P00742 41-179 limits assumed): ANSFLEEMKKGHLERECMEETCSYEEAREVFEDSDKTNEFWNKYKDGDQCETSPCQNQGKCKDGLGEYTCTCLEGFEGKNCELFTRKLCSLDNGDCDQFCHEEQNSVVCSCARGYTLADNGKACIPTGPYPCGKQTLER
Chain of Coagulation factor X (P00742 235-488 limits assumed): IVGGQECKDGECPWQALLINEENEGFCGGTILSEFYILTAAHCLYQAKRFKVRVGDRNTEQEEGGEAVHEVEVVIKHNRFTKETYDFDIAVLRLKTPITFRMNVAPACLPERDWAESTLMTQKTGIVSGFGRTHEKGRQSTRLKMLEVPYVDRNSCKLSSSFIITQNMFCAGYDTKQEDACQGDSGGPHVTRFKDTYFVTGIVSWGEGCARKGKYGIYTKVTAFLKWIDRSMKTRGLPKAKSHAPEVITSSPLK
Data set [2] concerns the target T1, Hepatocyte growth factor activator serine protease (Homo sapiens, UniProt Q04756).
T1 sequence (Q04756 whole entry): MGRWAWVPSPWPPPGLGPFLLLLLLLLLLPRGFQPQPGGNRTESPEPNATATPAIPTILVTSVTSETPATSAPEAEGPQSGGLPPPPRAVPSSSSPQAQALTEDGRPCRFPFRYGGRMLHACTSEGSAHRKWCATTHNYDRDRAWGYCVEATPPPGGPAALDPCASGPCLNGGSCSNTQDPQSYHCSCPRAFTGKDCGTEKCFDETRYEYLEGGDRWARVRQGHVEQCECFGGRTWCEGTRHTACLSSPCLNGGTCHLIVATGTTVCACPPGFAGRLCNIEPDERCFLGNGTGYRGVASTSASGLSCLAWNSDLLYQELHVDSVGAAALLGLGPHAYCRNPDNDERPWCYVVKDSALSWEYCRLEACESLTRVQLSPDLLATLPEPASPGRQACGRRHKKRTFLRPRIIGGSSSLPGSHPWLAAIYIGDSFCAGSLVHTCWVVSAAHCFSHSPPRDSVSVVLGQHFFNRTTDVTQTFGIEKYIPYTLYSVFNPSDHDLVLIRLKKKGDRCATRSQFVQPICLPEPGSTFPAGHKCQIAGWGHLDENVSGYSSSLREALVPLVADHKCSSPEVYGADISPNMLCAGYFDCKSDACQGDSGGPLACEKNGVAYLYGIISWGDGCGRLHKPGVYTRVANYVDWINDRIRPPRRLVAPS
The data set can be described thus: Inhibition of human recombinant hepatocyte growth factor activator using H2N(EEdansyl)GKQLRVVNGG (KDabcyl)-NH2 as substrate by fluorometric analysis. The class given is single protein.

The next data set concerns the target Serine protease hepsin (Homo sapiens, UniProt P05981). Description: Inhibition of human recombinant hepsin using H2N(EEdansyl)GKQLRVVNGG (KDabcyl)-NH2 as substrate by fluorometric analysis.
Another data set has as its target Prothrombin (Homo sapiens, UniProt P00734). The data set can be described thus: Inhibition of human recombinant thrombin using H2N(EEdansyl)GKQLRVVNGG (KDabcyl)-NH2 as substrate by fluorometric analysis.
The target of data set [3] is T2, Suppressor of tumorigenicity 14 protein (Homo sapiens, UniProt Q9Y5Y6).
T2 sequence (Q9Y5Y6 whole entry): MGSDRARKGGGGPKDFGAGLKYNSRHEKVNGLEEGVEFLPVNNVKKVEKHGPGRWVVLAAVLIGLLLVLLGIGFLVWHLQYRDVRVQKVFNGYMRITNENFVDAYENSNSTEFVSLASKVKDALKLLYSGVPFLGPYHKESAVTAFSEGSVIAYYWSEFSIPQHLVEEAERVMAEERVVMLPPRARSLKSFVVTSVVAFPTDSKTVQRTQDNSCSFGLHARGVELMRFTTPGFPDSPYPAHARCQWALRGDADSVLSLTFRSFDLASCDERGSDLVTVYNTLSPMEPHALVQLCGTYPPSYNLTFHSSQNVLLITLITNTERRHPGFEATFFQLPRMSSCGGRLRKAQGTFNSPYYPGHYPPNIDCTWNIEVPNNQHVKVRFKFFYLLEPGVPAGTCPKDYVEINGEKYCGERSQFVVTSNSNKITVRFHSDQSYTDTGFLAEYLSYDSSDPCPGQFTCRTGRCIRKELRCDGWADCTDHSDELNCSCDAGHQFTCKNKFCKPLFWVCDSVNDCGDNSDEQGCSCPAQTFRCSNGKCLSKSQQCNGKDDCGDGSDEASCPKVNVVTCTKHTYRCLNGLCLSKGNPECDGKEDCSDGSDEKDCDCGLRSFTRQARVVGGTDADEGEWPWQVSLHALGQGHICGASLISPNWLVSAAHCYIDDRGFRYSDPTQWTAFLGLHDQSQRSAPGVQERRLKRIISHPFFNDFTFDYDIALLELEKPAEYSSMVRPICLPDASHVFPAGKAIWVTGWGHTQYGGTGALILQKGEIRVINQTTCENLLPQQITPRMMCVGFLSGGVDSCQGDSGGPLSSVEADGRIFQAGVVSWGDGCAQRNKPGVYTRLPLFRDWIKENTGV
Description: Inhibition of human recombinant matripase catalytic domain using H2N(EEdansyl)GKQLRVVNGG (KDabcyl)-NH2 as substrate by fluorometric analysis.

Data set [4] can be described thus: Lipophilicity, logD of the compound at pH 7.4 by shake-flask method. Type of data set: physicochemical. To be noted: buffer.
In data set [5] the target is Hepatocyte growth factor activator/Serine protease hepsin/Suppressor of tumorigenicity 14 protein (Homo sapiens) (UniProt Q9Y5Y6+P05981+Q04756). Description: Inhibition of matripase/hepsin/hepatocyte growth factor activator-mediated HGF activation in human 18Co fibroblasts assessed as scattering of human DU145 cells after 24 hrs by crystal violet staining method. The class given is cell-based.
Chain of Hepatocyte growth factor activator/Serine protease hepsin/Suppressor of tumorigenicity 14 protein (Homo sapiens) (P05981 whole entry, looked up, one chain of several): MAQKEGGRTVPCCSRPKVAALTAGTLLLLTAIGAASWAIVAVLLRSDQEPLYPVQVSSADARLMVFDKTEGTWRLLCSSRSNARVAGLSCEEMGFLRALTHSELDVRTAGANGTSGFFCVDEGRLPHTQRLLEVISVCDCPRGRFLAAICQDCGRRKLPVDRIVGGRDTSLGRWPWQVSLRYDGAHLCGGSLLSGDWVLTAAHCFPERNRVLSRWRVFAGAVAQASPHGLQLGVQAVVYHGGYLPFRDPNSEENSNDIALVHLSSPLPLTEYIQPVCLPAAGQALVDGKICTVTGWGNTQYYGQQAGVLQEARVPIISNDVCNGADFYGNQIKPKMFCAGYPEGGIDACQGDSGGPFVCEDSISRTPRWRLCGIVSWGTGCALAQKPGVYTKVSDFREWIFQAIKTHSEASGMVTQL

Chain of Serine protease hepsin (P05981 1-162 limits assumed): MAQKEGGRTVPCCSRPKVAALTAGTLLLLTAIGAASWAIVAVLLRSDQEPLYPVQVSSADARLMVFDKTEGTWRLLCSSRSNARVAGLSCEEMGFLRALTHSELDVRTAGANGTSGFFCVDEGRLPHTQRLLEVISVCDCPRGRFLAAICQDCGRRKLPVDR
Chain of Serine protease hepsin (P05981 163-417 limits assumed): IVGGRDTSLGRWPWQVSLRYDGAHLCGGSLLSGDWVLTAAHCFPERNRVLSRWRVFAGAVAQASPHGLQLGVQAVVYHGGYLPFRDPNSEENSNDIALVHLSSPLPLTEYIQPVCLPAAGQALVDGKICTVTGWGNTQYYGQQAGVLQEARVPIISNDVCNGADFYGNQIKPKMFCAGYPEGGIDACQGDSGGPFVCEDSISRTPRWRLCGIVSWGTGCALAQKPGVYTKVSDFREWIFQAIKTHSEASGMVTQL

As to `N=C(N)c1cccc(N2CC(OCc3ccccc3)CN(CC3CCN(Cc4ccccc4)CC3)C2=O)c1` (stereo not drawn), the solubility kinetic in [1] was found to be 47 µM (≈ 24 µg/mL). For the same molecule, the Ki worked out at 550 nM at Trypsin; 920 nM at Coagulation factor X; 1920 nM in [2]; 760 nM at Serine protease hepsin; 29700 nM on Prothrombin; 1540 nM in data set [3]. Further, the logD in [4] is less than 2.

`N=C(N)c1cccc(N2CC(CNC(=O)c3ccccc3)CN(CC3CCN(Cc4ccccc4)CC3)C2=O)c1` (stereo not drawn): the Ki on Trypsin was 330 nM; at Coagulation factor X, 750 nM; in [2], 1100 nM; on Serine protease hepsin, 1100 nM; on Prothrombin it was more than 100000 nM; in [3] it was 470 nM.

In the case of `N=C(N)c1cccc(N2CC(NS(=O)(=O)Cc3ccccc3)CN(CC3CCN(Cc4ccccc4)CC3)C2=O)c1` (stereo not drawn), the Ki at Trypsin came out at 310 nM; at Coagulation factor X, 660 nM; in [2], 440 nM; on Serine protease hepsin, 530 nM; at Prothrombin, 13400 nM; in [3] it was 350 nM.

Take `COC1CN(CC2CCN(Cc3ccccc3)CC2)C(=O)N(c2cccc(C(=N)N)c2)C1` (stereo not drawn): the solubility kinetic in [1] was determined as 47 µM (≈ 20.5 µg/mL). Also, the Ki at Trypsin was 760 nM; at Coagulation factor X, 1230 nM; in data set [2], 2490 nM; at Serine protease hepsin, 760 nM; on Prothrombin it was more than 100000 nM; in data set [3] it was 810 nM. This molecule also had a logD in data set [4] of less than 2.

On to `N=C(N)c1cccc(N2CC(O)CN(CC3CCN(Cc4ccccc4)CC3)C2=O)c1` (stereo not drawn), for which the solubility kinetic in data set [1] came out at 47 µM (≈ 19.8 µg/mL). Further, the inhibition entry in data set [5] was “Dose-dependent effect”. Also, the Ki on Trypsin is 390 nM; at Coagulation factor X, 850 nM; in data set [2], 880 nM; on Serine protease hepsin it was 210 nM; at Prothrombin, 21900 nM; in [3], 280 nM. In data set [4], this molecule gave a logD of less than 2.

With `COCC1CN(CC2CCN(Cc3ccccc3)CC2)C(=O)N(c2cccc(C(=N)N)c2)C1` (stereo not drawn), the solubility kinetic in data set [1] stood at 47 µM (≈ 21.1 µg/mL). Also, the inhibition result in [5] was “Dose-dependent effect”. For the same molecule, the Ki at Trypsin is 210 nM; on Coagulation factor X it was 200 nM; in [2], 160 nM; on Serine protease hepsin it was 920 nM; on Prothrombin, 8100 nM; in data set [3] it was 850 nM. In addition, the logD in [4] was less than 2.

Regarding `CC1CN(CCC2CCN(Cc3ccccc3)CC2)C(=O)N(c2cccc(C(=N)N)c2)C1` (stereo not drawn), the Ki is 2770 nM at Trypsin; 400 nM at Coagulation factor X; 1110 nM in [2]; 2120 nM at Serine protease hepsin; more than 100000 nM on Prothrombin; 510 nM in data set [3].

Take `CC1CN(c2ccc(C(=N)N)cc2)C(=O)N(C2CCN(Cc3ccccc3)CC2)C1` (stereo not drawn): the Ki on Trypsin was 35400 nM; on Coagulation factor X it was 25500 nM; in data set [2] it was 46500 nM; on Serine protease hepsin, 61200 nM; on Prothrombin it was more than 100000 nM; in [3] it was 48900 nM.

Consider `N=C(N)c1cccc(N2CC(NC(=O)Cc3ccccc3)CN(CC3CCN(Cc4ccccc4)CC3)C2=O)c1` (stereo not drawn), for which the Ki at Trypsin was 500 nM; at Coagulation factor X it was 740 nM; in [2], 380 nM; at Serine protease hepsin, 1120 nM; at Prothrombin, 42300 nM; in data set [3], 1280 nM.

Take `N=C(N)c1cccc(NC(=O)NC2CCN(Cc3ccccc3)CC2)c1`: the Ki at Trypsin is 5300 nM; on Coagulation factor X, 5400 nM; in [2], 54600 nM; on Serine protease hepsin, 53100 nM; at Prothrombin, more than 100000 nM; in data set [3] it was 40500 nM.

Turning to `CC1CN(c2cccc(C(=N)N)c2)C(=O)N(C2CCN(Cc3ccccc3)CC2)C1` (stereo not drawn), the Ki at Trypsin came out at 780 nM; at Coagulation factor X, 240 nM; in data set [2] it was 9800 nM; on Serine protease hepsin, 3400 nM; at Prothrombin, 35900 nM; in [3] it was 830 nM.

As for `N=C(N)c1cccc(N2CC(COCc3ccccc3)CN(CC3CCN(Cc4ccccc4)CC3)C2=O)c1` (stereo not drawn), in data set [1], the solubility kinetic is 47 µM (≈ 24.7 µg/mL). For the same molecule, the Ki worked out at 100 nM at Trypsin; 180 nM on Coagulation factor X; 430 nM in [2]; 560 nM at Serine protease hepsin; 2130 nM on Prothrombin; 850 nM in data set [3]. Also, in [4], the logD is less than 2.

As for `CC1CN(Cc2cccc(C(=N)N)c2)C(=O)N(C2CCN(Cc3ccccc3)CC2)C1` (stereo not drawn), the Ki at Trypsin was 4800 nM; on Coagulation factor X, 49400 nM; in [2], more than 100000 nM; at Serine protease hepsin, 15100 nM; on Prothrombin it was more than 100000 nM; in [3], 13500 nM.

Turning to `CC1CN(Cc2ccc(C(=N)N)cc2)C(=O)N(C2CCN(Cc3ccccc3)CC2)C1` (stereo not drawn), the Ki on Trypsin came out at 4800 nM; on Coagulation factor X it was 22800 nM; in [2] it was 39600 nM; on Serine protease hepsin, 20800 nM; on Prothrombin, 82200 nM; in [3] it was 15400 nM.

For the molecule `N=C(N)c1cccc(N2CC(CNC(=O)Cc3ccccc3)CN(CC3CCN(Cc4ccccc4)CC3)C2=O)c1` (stereo not drawn), the Ki on Trypsin is 590 nM; at Coagulation factor X, 1550 nM; in data set [2], 1080 nM; at Serine protease hepsin, 310 nM; on Prothrombin, more than 100000 nM; in data set [3], 1510 nM.

Take `N=C(N)c1cccc(N2CC(NS(=O)(=O)c3ccccc3)CN(CC3CCN(Cc4ccccc4)CC3)C2=O)c1` (stereo not drawn): the Ki turned out to be 340 nM at Trypsin; 610 nM on Coagulation factor X; 520 nM in [2]; 670 nM at Serine protease hepsin; 17000 nM on Prothrombin; 520 nM in data set [3].

In the case of `CS(=O)(=O)NC1CN(CC2CCN(Cc3ccccc3)CC2)C(=O)N(c2cccc(C(=N)N)c2)C1` (stereo not drawn), the Ki is 420 nM on Trypsin; 510 nM on Coagulation factor X; 350 nM in data set [2]; 720 nM at Serine protease hepsin; more than 100000 nM at Prothrombin; 330 nM in data set [3].

On to `N=C(N)c1cccc(N2CC(CO)CN(CC3CCN(Cc4ccccc4)CC3)C2=O)c1` (stereo not drawn), for which the solubility kinetic in data set [1] was 47 µM (≈ 20.5 µg/mL). In addition, the inhibition result in data set [5] is “Dose-dependent effect”. In addition, the Ki was determined as 150 nM on Trypsin; 250 nM at Coagulation factor X; 230 nM in data set [2]; 690 nM at Serine protease hepsin; 7400 nM on Prothrombin; 580 nM in [3]. Also, in [4], the logD was less than 2.
